# Results as given in US6503943B1, “Platinum complex, its preparation and therapeutic application” (priority 1998, dated 2003).
# “And” between values parts separate entries of the source, which are not always exact repeats. Equal values may be shown once.
# Columns and labels:
# leucaemia L1210 [1] = experiment: Antitumor effect at animals with leucaemia L1210, single administration (Example 4); format: in vivo, mice DBA2; settings: for Survival (in % of control) / Survival time, Geom. mean: 1st day
# leucaemia L1210 [2] = experiment: Antitumor effect at animals with leucaemia L1210, intermitent administration 3x (Example 5); format: in vivo, mice DBA2; settings: 1st, 5th and 9th day
# leucaemia L1210 [3] = experiment: Antitumor effect at animals with leucaemia L1210, continual versus intermitent regimen (Example 6); format: in vivo, mice DBA2; settings: for Survival (in % of control) / Survival time, Geom. mean: 1st day
# leucaemia L1210 [4] = experiment: Antitumor effect at animals with leucaemia L1210, continual regimen (Example 7); format: in vivo, mice DBA2
# Gardner lymphosarcoma = experiment: Antitumor effect at animals with solid form of Gardner lymphosarcoma (Example 8); format: in vivo, mice C3H; settings: 5th day, tumors weighed 14th day
# [5] = system: mammal adenocarcinoma MC2111; experiment: Antitumor effect at animals with solid form of mammal adenocarcinoma MC2111 (Example 9); format: in vivo, mice DBA1; settings: for Tumor mass (%) of control / Tumor mass, Arithm. mean: 5th day, tumor size 14th day, mass from regression
# [6] = system: ascitic form of Ehrlich tumor (ATE); experiment: Antitumor effect at animals with ascitic form of Ehrlich tumor (ATE) (Example 10); format: in vivo, mice ICR; settings: for Survival (in % of control) / Survival time, Geom. mean / Tumor mass (%) of control / Tumor mass, Arithm. mean: 1st day; for Tumor mass (%) of control / Tumor mass, Arithm. mean: dissection 10th day
# [7] = system: ascitic form of Ehrlich tumor (ATE); experiment: Antitumor effect at animals with ascitic form of Ehrlich tumor (ATE) (Example 11);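 for all read-outs here: half of each dose group killed on day 10, tumor mass taken as animal mass lost on ascites aspiration, ascitocrit by microhematocrit centrifuge, rest followed daily for survival versus reference group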; settings: for Survival (in % of control) / Survival time, Geom. mean / Total ascitocrit (%) of control / Total ascitocrit (mass of cell fraction of a tumor), Arithm. mean / Tumor mass (%) of control / Tumor mass, Arithm. mean: 1st day; for Total ascitocrit (%) of control / Total ascitocrit (mass of cell fraction of a tumor), Arithm. mean / Tumor mass (%) of control / Tumor mass, Arithm. mean: dissection 10th day
# Method: After termination of application, one half of animals in each dosage group was destroyed at 10th day after inoculation in ether narcosis, the ascits were sucked out after laparotomy and the mass of a tumor at each of the animals was determined from the difference of mass before and after sucking out the ascit. Ascitocrit in ascitic liquor of single animals was determined on microhematocrit centrifuge in heparinized capillary tubes of 75 mm length. The value of “total ascitocrit”corresponding to a mass of cells in ascitic liquor has been determined from percentage of ascitocrit and mass of the tumor. Remaining animals were left for monitoring the survival time. In these animals, the survival time was monitored on daily basis. The dependence of the survival time value on the applied dose was evaluated in comparison with the reference group.
# The single estimated time points as biological responses were evaluated by a test of equivalence of two mean values (Student's t-test). Geometric mean was calculated from single values of survival time, arithmetic means were calculated from single values of tumor mass and total ascitocrit. Difference between mean values was evaluated by a test of equivalence of two mean values (Student's t-test) under presumption of normal probability distribution of mass values as well as of total ascitocrit values and of logarithmic/normal distribution of temporal values, all under presumption of possible unknown disseminations. Those diferences in mean values, whose values of a test criterium exceeded the critical value at the 5% and 1% significance level were evaluated as statistically significant and highly statistically significant, respectively.
# The optimum dosage has been calculated from values of survival time according to the proportional risk model of Cox (Carter et al., 1982). Parameters of Weinbull distribution and logarithmic transformation of introductory data were used for estimation of a basic and modified survival function from experimental data.
smiles,measurement,setting,value
"N.N.[Cl][Pt][Cl] [Platidiam, cis-diammin-dichloroplatinum(II) complex]",Survival (in % of control),leucaemia L1210 [1]; 2.5 mg/kg s.c. 1x,112%
same,"Survival time, Geom. mean",leucaemia L1210 [1]; 2.5 mg/kg s.c. 1x,14.2 days
same,Survival (in % of control),leucaemia L1210 [1]; 5 mg/kg s.c. 1x,>132%
same,"Survival time, Geom. mean",leucaemia L1210 [1]; 5 mg/kg s.c. 1x,16.7 days
same,Increase of mean value of survival time against the control,"leucaemia L1210 [1]; 5 mg/kg s.c., single, not statistically significant",32%
same,Survival (in % of control),leucaemia L1210 [1]; 10 mg/kg s.c. 1x,48%
same,"Survival time, Geom. mean",leucaemia L1210 [1]; 10 mg/kg s.c. 1x,6.1 days
same,Survival (in % of control),leucaemia L1210 [2]; 1 mg/kg/day s.c. 3x,178%
same,"Survival time, Geom. mean",leucaemia L1210 [2]; 1 mg/kg/day s.c. 3x,28.0 days
same,Survival (in % of control),leucaemia L1210 [2]; 2 mg/kg/day s.c. 3x,168%
same,"Survival time, Geom. mean",leucaemia L1210 [2]; 2 mg/kg/day s.c. 3x,26.3 days
same,Survival (in % of control),leucaemia L1210 [2]; 4 mg/kg/day s.c. 3x,106%
same,"Survival time, Geom. mean",leucaemia L1210 [2]; 4 mg/kg/day s.c. 3x,16.6 days
same,Survival (in % of control),leucaemia L1210 [3]; 2 mg/kg s.c. 1x,155%
same,"Survival time, Geom. mean",leucaemia L1210 [3]; 2 mg/kg s.c. 1x,17.9 days
same,Survival (in % of control),leucaemia L1210 [3]; 4 mg/kg s.c. 1x,174%
same,"Survival time, Geom. mean",leucaemia L1210 [3]; 4 mg/kg s.c. 1x,20.2 days
same,Survival (in % of control),leucaemia L1210 [3]; 8 mg/kg s.c. 1x,204%
same,"Survival time, Geom. mean",leucaemia L1210 [3]; 8 mg/kg s.c. 1x,23.7 days
same,"Evaluation of antitumor effect (survival time versus control), in words","leucaemia L1210 [3]; LA-12 6 mg/kg p.o.×9, Platidiam 8 and 4 mg/kg s.c.×1, LA-2 any of the dosage groups",antitumor effective
same,LTS - Long Term Survivors (amount of surviving animals in a group),"leucaemia L1210 [4]; 4 mg/kg s.c. 1x, 1st day",5/10
same,Survival (in % of control),"leucaemia L1210 [4]; 4 mg/kg s.c. 1x, 1st day",>223%
same,"Survival time, Geom. mean","leucaemia L1210 [4]; 4 mg/kg s.c. 1x, 1st day",50.2 days
same,Increase of survival time value in comparison with the control group,leucaemia L1210 [4]; 4 mg/kg s.c.×1,123%
same,Tumor mass (%) of control,Gardner lymphosarcoma; 2 mg/kg s.c. 1x,83%
same,"Tumor mass, Arithm. mean",Gardner lymphosarcoma; 2 mg/kg s.c. 1x,5.19 g
same,Tumor mass (%) of control,Gardner lymphosarcoma; 4 mg/kg s.c. 1x,59%
same,"Tumor mass, Arithm. mean",Gardner lymphosarcoma; 4 mg/kg s.c. 1x,3.68 g
same,Tumor mass (%) of control,Gardner lymphosarcoma; 8 mg/kg s.c. 1x,26%
same,"Tumor mass, Arithm. mean",Gardner lymphosarcoma; 8 mg/kg s.c. 1x,1.64 g
same,Tumor mass (%) of control,[5]; 4 mg/kg s.c. 1x,76%
same,"Tumor mass, Arithm. mean",[5]; 4 mg/kg s.c. 1x,3.53 g
same,Tumor mass (%) of control,[5]; 8 mg/kg s.c. 1x,69%
same,"Tumor mass, Arithm. mean",[5]; 8 mg/kg s.c. 1x,3.20 g
same,LTS - Long Term Survivors; the amount of animals destroyed at 120th day,"[5]; mouse, in vivo",1/10
same,Survival (in % of control),"[5]; mouse, in vivo",>162 2) % and >158 1) %
same,"Survival time, Geom. mean","[5]; mouse, in vivo",35.1 days and 34.3 days
same,"Evaluation of antitumor effect, in words","[5]; p.o.×9 12, 6, 3 mg/kg/day, Platidiam 8 and 4 mg/kg s.c. once",antitumor effective
same,Survival (in % of control),[6]; 2 mg/kg s.c. 1x,120%
same,"Survival time, Geom. mean",[6]; 2 mg/kg s.c. 1x,13.8 days
same,Tumor mass (%) of control,[6]; 2 mg/kg s.c. 1x,115%
same,"Tumor mass, Arithm. mean",[6]; 2 mg/kg s.c. 1x,3.06 g
same,Survival (in % of control),[6]; 4 mg/kg s.c. 1x,190%
same,"Survival time, Geom. mean",[6]; 4 mg/kg s.c. 1x,21.8 days
same,Tumor mass (%) of control,[6]; 4 mg/kg s.c. 1x,101%
same,"Tumor mass, Arithm. mean",[6]; 4 mg/kg s.c. 1x,2.68 g
same,Survival (in % of control),[6]; 8 mg/kg s.c. 1x,184%
same,"Survival time, Geom. mean",[6]; 8 mg/kg s.c. 1x,21.0 days
same,Tumor mass (%) of control,[6]; 8 mg/kg s.c. 1x,82%
same,"Tumor mass, Arithm. mean",[6]; 8 mg/kg s.c. 1x,2.16 g
same,"Significance of mean survival time increase in comparison with untreated control (p≦0.01), in words",[6]; Tab. 7-2,atatistically highly significant
same,Survival (in % of control),[7]; 2 mg/kg s.c. 1x,128%
same,"Survival time, Geom. mean",[7]; 2 mg/kg s.c. 1x,11.4 days
same,Total ascitocrit (%) of control,[7]; 2 mg/kg s.c. 1x,115%
same,"Total ascitocrit (mass of cell fraction of a tumor), Arithm. mean",[7]; 2 mg/kg s.c. 1x,0.79 g
same,Tumor mass (%) of control,[7]; 2 mg/kg s.c. 1x,72%
same,"Tumor mass, Arithm. mean",[7]; 2 mg/kg s.c. 1x,2.83 g
same,Survival (in % of control),[7]; 4 mg/kg s.c. 1x,197%
same,"Survival time, Geom. mean",[7]; 4 mg/kg s.c. 1x,17.5 days
same,Total ascitocrit (%) of control,[7]; 4 mg/kg s.c. 1x,116%
same,"Total ascitocrit (mass of cell fraction of a tumor), Arithm. mean",[7]; 4 mg/kg s.c. 1x,0.80 g
same,Tumor mass (%) of control,[7]; 4 mg/kg s.c. 1x,90%
same,"Tumor mass, Arithm. mean",[7]; 4 mg/kg s.c. 1x,3.53 g
same,Survival (in % of control),[7]; 8 mg/kg s.c. 1x,208%
same,"Survival time, Geom. mean",[7]; 8 mg/kg s.c. 1x,18.5 days
same,Total ascitocrit (%) of control,[7]; 8 mg/kg s.c. 1x,100%
same,"Total ascitocrit (mass of cell fraction of a tumor), Arithm. mean",[7]; 8 mg/kg s.c. 1x,0.68 g
same,Tumor mass (%) of control,[7]; 8 mg/kg s.c. 1x,60%
same,"Tumor mass, Arithm. mean",[7]; 8 mg/kg s.c. 1x,2.36 g
same,"Evaluation of antitumor effect (survival time versus control), in words","[7]; p.o.×9, Platidiam 8 and 4 mg/kg s.c.×1, Tab. 8.1",antitumor effective
